According to patent US8476031B2, “Methods for protein labeling based on acyl carrier protein” (priority 2003, dated 2013):

Key:
[1] = biological target: T1, ACP-NK1 fusion protein displayed on HEK293 cells (UniProt P0A6A8+P24224+P25103); assay: Labeling of ACP-NK1 fusion protein displayed on HEK293 cells (confocal fluorescence microscopy); format: cell-based; conditions: 5 μM CoA substrate, 1 μM 6xHis-AcpS, 10 min RT; CoA-Bt followed by Streptavidin-Cy5; no staining of non-transfected cells
T1 construct: FLAG tag (C); 6xHis tag (C); expressed in transfected cells; host or cells: HEK293 (transient, pCEP4 vector)
Method: For the transient expression of ACP-NK1, the signal sequence of the 5-HT3-receptor (Sig5HT3) is fused to the N terminus of ACP via a short DYV linker and NK1 is fused to the C terminus of ACP via a short TS linker. In the resulting construct, a FLAG tag and a 6xHis tag is also attached to the C terminus of NK1. The corresponding gene of the fusion protein is inserted into the NheI and BamHI sites of the vector pCEP4 (Invitrogen). HEK293 cells are grown in DMEM/F2 (Dulbecco's modified Eagle medium, GIBCO BRL) supplemented with […] fetal calf serum (GIBCO, BRL). Transient transfection is performed as described (Nat Biotechnol 21, 86-89 (2003)) and the HEK293 cells are co-transfected with vectors expressing ACP-NK1 and a nuclear targeted EGEP (EGFP-NLS3). After 24 h, cells are incubated for 10 min at room temperature with 500 μl of PBS buffer containing MgCl2 (10 mM), 6xHis-AcpS (1 μM) and either CoA-Cy3, CoA-Cy5 or CoA-Bt (each 5 μM). The cells are then washed three times with PBS to remove any excess substrate and directly analyzed by laser-scanning confocal fluorescence microscopy when labeled with Cy3 or Cy5. Biotinylated cells are incubated with FluoroLink™ Cy5-labeled streptavidin (Amersham Biosciences) at concentrations of 1 μg/ml in PBS before being washed three times with PBS. Laser-scanning confocal micographs are recorded using a 488 nm argon/krypton laser line; a 543 nm HeNe laser line or a 633 nm HeNe laser line on a Zeiss LSM 510 microscope (Carl Zeiss AG, Göttingen, Germany) with a 63× water (1.2 numerical aperture) objective. Scanning speed and laser intensity are adjusted to avoid photobleaching of the fluorescent probes, and damage or morphological changes of the cells. Fluorescence is analyzed in the channels sensitive to GFP and sensitive to the respective dye. […] The ACP-NK1 receptor transiently expressed in HE293 cells is co-stained in a further experiment with CoA-Cy5 and with tetramethylrhodamine-labeled substance P(SP-rho), the natural ligand of NK1.

[2] = biological target: T2, ACP-NK1 receptor transiently expressed in HE293 cells (UniProt P0A6A8+P25103); assay: Co-staining of ACP-NK1 with CoA-Cy5 and SP-rho, reversal by unlabeled substance P; format: cell-based; conditions: CoA-Cy5 and SP-rho co-stained
T2 construct: FLAG tag (C); 6xHis tag (C); expressed in transfected cells; host or cells: HEK293 (transient, pCEP4 vector)
Method: For the transient expression of ACP-NK1, the signal sequence of the 5-HT3-receptor (Sig5HT3) is fused to the N terminus of ACP via a short DYV linker and NK1 is fused to the C terminus of ACP via a short TS linker. In the resulting construct, a FLAG tag and a 6xHis tag is also attached to the C terminus of NK1. The corresponding gene of the fusion protein is inserted into the NheI and BamHI sites of the vector pCEP4 (Invitrogen). HEK293 cells are grown in DMEM/F2 (Dulbecco's modified Eagle medium, GIBCO BRL) supplemented with […] fetal calf serum (GIBCO, BRL). Transient transfection is performed as described (Nat Biotechnol 21, 86-89 (2003)) and the HEK293 cells are co-transfected with vectors expressing ACP-NK1 and a nuclear targeted EGEP (EGFP-NLS3). […] The cells are then washed three times with PBS to remove any excess substrate and directly analyzed by laser-scanning confocal fluorescence microscopy when labeled with Cy3 or Cy5. […] Laser-scanning confocal micographs are recorded using a 488 nm argon/krypton laser line; a 543 nm HeNe laser line or a 633 nm HeNe laser line on a Zeiss LSM 510 microscope (Carl Zeiss AG, Göttingen, Germany) with a 63× water (1.2 numerical aperture) objective. […] Fluorescence is analyzed in the channels sensitive to GFP and sensitive to the respective dye. […]

[3] = biological target: T3, 6xHis-ACPS (Escherichia coli, UniProt P24224); assay: Competition assay between CoA and CoA-label as ACPS substrates; format: biochemical, E. coli; conditions: 6xHis-ACP 0.4 μM, 6xHis-ACPS 0.4 μM, CoA-L 2 μM, CoA 0-80 μM; fit I=A/(1+Bx) of Western blot intensities
T3 sequence (P24224 1-126): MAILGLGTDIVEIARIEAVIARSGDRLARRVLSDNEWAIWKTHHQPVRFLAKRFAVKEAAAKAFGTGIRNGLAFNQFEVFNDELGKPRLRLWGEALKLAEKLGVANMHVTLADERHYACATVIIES
Method: (C) Competition assay between CoA and CoA-Bt or CoA-Dg as ACPS substrates: 6xHis-ACP (0.4 μM), 6xHis-ACPS (0.4 μM), CoA-Bt or CoA-Dg (2 μM) and varying concentrations of CoA (0-80 μM) are incubated for 30 min and the degree of labeling determined by Western blotting.
Purified 6xHis-AcpS (0.4 μM) is incubated at RT with either CoA-Bt or CoA-Dg (2 μM), variable amounts of CoA (0, 2, 4, 8, 12, 20, 40, 80 μM) and purified 6xHis-ACP-ha (0.4 μM) in 20 μl reaction buffer (50 mM Tris.Cl, pH 7.5, 10 mM MgCl2). After 25 minutes, each sample is quenched by addition of 20 μl of 2×SDS sample buffer and heated at 95° C. for 2 minutes. Labeled 6xHis-ACP-ha is detected by Western-blotting using either a streptavidin-horseradish peroxidase conjugate (dilution 1:12500) or an anti-digoxigenin antibody-horseradish peroxidase conjugate (dilution 1:500) and a chemiluminescent peroxidase substrate. Signal intensities at 0 μM CoA are arbitrary set to 1 for each experiment.

[4] = biological target: 6xHis-ACP (Escherichia coli, UniProt P0A6A8+P24224); assay: In vitro biotinylation of 6xHis-ACP using CoA-Bt and 6xHis-ACPS (Western blot); format: biochemical, E. coli; conditions: 6xHis-ACP 1 μM, 6xHis-ACPS 0.2 μM, CoA-Bt 5 μM; controls lacking components
Method: (A) Analysis of the reaction of 6xHis-ACP (1 μM), 6xHis-ACPS (0.2 μM) and CoA-Bt (5 μM). At indicated times (t) aliquots are removed from the reaction mixture and biotinylation of 6xHis-ACP probed by Western blotting using a streptavidin-peroxidase conjugate.
Purified 6xHis-ACP (1 μM) is incubated with 6xHis-ACPS (0.2 μM) and MgCl2 (10 mM) in reaction buffer (43 μl, 50 mM Tris Cl, pH 8.8) at room temperature. An aliquot of 7.5 μl is taken for analysis. CoA-Bt is added to a final concentration of 5 μM. Aliquots of 7.5 μl are taken at defined times. The aliquots are quenched for 30 seconds with coenzyme A (1 mM final concentration), and 8.2 μl SDS-buffer 2× are added. The samples are heated for 2 minutes at 95° C. The biotinylated 6xHis-ACP is detected by Western-blotting, using a streptavidin-horseradish peroxidase conjugate (NEN) and a chemiluminescent peroxidase substrate (Renaissance reagent plus, NEN). The western blot is analyzed using an image station (Kodak 440). As controls, samples containing each protein alone, and samples containing only one of the two proteins and CoA-Bt are also prepared and analyzed for biotinylation as above in order to check the background and to check the specificity of the reaction.

T1 sequence (P0A6A8+P25103 fused, one chain of several): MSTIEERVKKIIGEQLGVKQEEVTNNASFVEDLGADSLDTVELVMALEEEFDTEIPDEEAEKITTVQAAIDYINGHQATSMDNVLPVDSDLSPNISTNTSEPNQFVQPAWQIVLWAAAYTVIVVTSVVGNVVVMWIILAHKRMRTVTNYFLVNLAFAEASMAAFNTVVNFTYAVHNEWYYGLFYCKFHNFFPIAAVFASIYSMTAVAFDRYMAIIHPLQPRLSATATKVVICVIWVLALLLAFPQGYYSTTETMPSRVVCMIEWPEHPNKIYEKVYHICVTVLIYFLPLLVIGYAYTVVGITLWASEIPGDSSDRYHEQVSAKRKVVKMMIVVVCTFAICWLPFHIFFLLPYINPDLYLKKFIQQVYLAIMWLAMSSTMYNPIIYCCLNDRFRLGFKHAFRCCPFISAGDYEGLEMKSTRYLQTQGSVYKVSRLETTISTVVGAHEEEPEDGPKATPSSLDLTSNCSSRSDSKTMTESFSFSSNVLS
T2 sequence (P0A6A8+P25103 fused): as the sequence (P0A6A8+P25103 fused, one chain of several) above
Sequence of 6xHis-ACP (P0A6A8 whole entry, looked up, one chain of several): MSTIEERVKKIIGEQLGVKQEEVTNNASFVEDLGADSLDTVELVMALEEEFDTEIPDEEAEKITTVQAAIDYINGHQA

Row | Compound | membrane labelling of transfected HEK293 cells [1] | staining localisation in co-staining experiment [2] | ratio of the specificity constants (kcat/KM)CoA/(kcat/KM)CoA-L [3] | biotinylation of 6xHis-ACP, specificity controls [4]
1 | CCN1/C(=C/C=C/C2=[N+](CCCCCC(=O)NCCN3C(=O)C[C@@H](SCCNC(=O)CCNC(=O)[C@H](O)C(C)(C)COP(=O)(O)OP(=O)(O)OC[C@H]4O[C@@H](n5cnc6c(N)ncnc65)C(O)[C@H]4OP(=O)(O)O)C3=O)c3ccc(S(=O)(=O)O)cc3C2(C)C)C(C)(C)c2cc(S(=O)(=O)[O-])ccc21 (stereo partly shown) [CoA-Cy3] | clear membrane labelling | – | – | –
2 | CCN1/C(=C/C=C/C=C/C2=[N+](CCCCCC(=O)NCCN3C(=O)C[C@@H](SCCNC(=O)CCNC(=O)[C@H](O)C(C)(C)COP(=O)(O)OP(=O)(O)OC[C@H]4O[C@@H](n5cnc6c(N)ncnc65)C(O)[C@H]4OP(=O)(O)O)C3=O)c3ccc(S(=O)(=O)O)cc3C2(C)C)C(C)(C)c2cc(S(=O)(=O)[O-])ccc21 (stereo partly shown) [CoA-Cy5] | clear membrane labelling | stain exclusively the membrane area | – | –
3 | CC(C)(COP(=O)(O)OP(=O)(O)OC[C@H]1O[C@@H](n2cnc3c(N)ncnc32)C(O)[C@H]1OP(=O)(O)O)[C@@H](O)C(=O)NCCC(=O)NCCSC1CC(=O)N(CCCCCC(=O)NNC(=O)CCC(=O)N[C@H]2CC[C@@]3(C)[C@H](CC[C@@H]4[C@H]3C[C@@H](O)[C@]3(C)[C@@H](C5=CC(=O)OC5)CC[C@]43O)C2)C1=O (stereo partly shown) [CoA-Dg] | – | – | 0.35 | –
4 | CC(C)(COP(=O)(O)OP(=O)(O)OC[C@H]1O[C@@H](n2cnc3c(N)ncnc32)C(O)[C@H]1OP(=O)(O)O)[C@@H](O)C(=O)NCCC(=O)NCCS[C@@H]1CC(=O)N(CCCCCC(=O)NNC(=O)CCCC[C@@H]2SC[C@@H]3NC(=O)N[C@@H]32)C1=O (stereo partly shown) [CoA-Bt] | clear membrane labelling | – | 0.48 | depends on the presence of all three components
